As a reminder, the EC50 is the concentration at which the effect is half-maximal. In general, ΔTm refers to the change in melting temperature against a reference sample.

SMILES strings stand for the structures. Where two headings read alike, the source gives them in different places. A value given as a limit tells only on which side of the number the result lay.

The target of assay [1] is T1, huSTING (WT) (Homo sapiens (Human), UniProt Q86WV6, H232R). Put plainly: THP-1 reporter cell line assay, THP-1-Dual KI-hSTING-R232 cells. The format is cell-based.
Target sequence in this assay (Q86WV6 whole entry H232R): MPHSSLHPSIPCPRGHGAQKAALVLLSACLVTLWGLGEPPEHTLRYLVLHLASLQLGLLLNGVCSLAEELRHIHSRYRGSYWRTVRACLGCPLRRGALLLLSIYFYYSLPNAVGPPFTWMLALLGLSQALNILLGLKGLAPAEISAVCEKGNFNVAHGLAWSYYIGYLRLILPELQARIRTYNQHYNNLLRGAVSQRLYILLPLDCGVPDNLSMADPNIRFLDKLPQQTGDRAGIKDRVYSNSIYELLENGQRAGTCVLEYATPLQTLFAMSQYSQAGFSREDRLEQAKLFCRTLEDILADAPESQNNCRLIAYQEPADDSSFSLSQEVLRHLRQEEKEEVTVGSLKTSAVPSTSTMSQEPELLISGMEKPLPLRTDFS
Assay [2] has as its target huSTING (HAQ) (Homo sapiens (Human), UniProt Q86WV6, G230A/H232R/R293Q/R71H). Put plainly: THP-1 reporter cell line assay, THP-1 STING Lucia ISG cells. The format is cell-based.
In assay [3] the target is T1, huSTING (WT). Put plainly: Differential scanning fluorimetry (DSF), huSTING (WT). The format is binding. As to conditions: for ΔTm at 100 µM: read-out: DSF huSTING (WT) ΔTm (° C.). As to the method: (§1) DSF monitors thermal unfolding of protein in the presence of a fluorescent dye and is typically performed using a real-time PCR instrument. The temperature at which a protein unfolds is measured by an increase in the fluorescence of a dye with affinity for hydrophobic parts of the protein that are gradually exposed during unfolding. The fluorescence of the dye is quenched in aqueous environments, but when the dye associates with hydrophobic sites on the unfolded protein, its fluorescence increases. The fluorescence intensity is plotted as a function of the temperature, generating a sigmoidal curve that can be described by a two-state transition. The inflection point of the transition curve (Tm) is calculated using simple equations such as that of Boltzman.
(§2) Sealed plates were then placed into a Bio-Rad CFX96/C1000 thermocycler and FRET scanning mode (λ^excitation of 490 nm and reads at λ^emission of 570 nm) was used to measure fluorescence intensity. […] The melting point (Tm) obtained for STING protein alone was subtracted from Tm obtained for protein incubated with ligand to generate ΔTm values listed in the table below.
(§3) These additional compounds were tested as described above, however the protein concentration was 2 μM.
Background: In DSF a fluorescence change marks the thermal transition of the protein.
Target sequence in this assay (Q86WV6 other isoform, or with tags, fused parts or gaps, stated change not applied): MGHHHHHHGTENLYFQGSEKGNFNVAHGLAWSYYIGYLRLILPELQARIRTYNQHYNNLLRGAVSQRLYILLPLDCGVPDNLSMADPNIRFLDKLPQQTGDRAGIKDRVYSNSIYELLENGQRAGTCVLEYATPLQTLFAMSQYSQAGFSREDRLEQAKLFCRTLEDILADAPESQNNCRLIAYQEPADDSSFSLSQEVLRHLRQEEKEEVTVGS

In assay [4] the target is human STING (HAQ) (Homo sapiens, UniProt Q86WV6, G230A/H232R/R293Q). Put plainly: biochemical. The class given is binding. As to conditions: for ΔTm at 100 µM: read-out: DSF huSTING (HAQ) ΔTm (° C.). The procedure: as §1, §2, §3
Sequence of human STING (HAQ) (Q86WV6 whole entry G230A/H232R/R293Q, looked up): as the sequence (Q86WV6 whole entry H232R) above, with G230A, R293Q counted along it
Setting [5] is: read-out: Cellular EC50 huSTING (WT).
[6] abbreviates: THP-1 STING Lucia ISG cells, 24 h, top concentration 50 μM, read-out: Cellular EC50 huSTING (HAQ).
Where [7] appears, read: 1 μM protein, compound at 100 μM.
Where [8] appears, read: THP-1 STING Lucia ISG cells, modified method, top concentration 40 μM, pin tool, EnVision, read-out: Cellular EC50 huSTING (HAQ).
Setting [9] is: compound 100 μM, protein concentration 2 μM.

Sequence of huSTING (HAQ) (Q86WV6 whole entry R71H/G230A/H232R/R293Q): as the sequence (Q86WV6 whole entry H232R) above, with R71H, G230A, R293Q counted along it

Consider `CC(C)(C)C(=O)OCOC(=O)c1sc2cccc(Cl)c2c1COc1ccc(C(N)=O)cc1` [Example 74, (Pivaloyloxy)methyl 3-((4-carbamoylphenoxy)methyl)-4-chlorobenzo[b]thiophene-2-carboxylate], for which the EC50 in assay [1] (setting [5]) was determined as 2.47 µM; in assay [2] (setting [6]) it was 1.05 µM. For the same compound, in assay [3] (setting [7]), the ΔTm at 100 µM was -4.22 °C.
In the case of `NC(=O)c1cc(F)c(OCc2c(C(=O)O)sc3c(F)ccc(F)c23)c(F)c1` [Example 80, 3-((4-Carbamoyl-2,6-difluorophenoxy)methyl)-4,7-difluorobenzo[b]thiophene-2-carboxylic acid], the EC50 in assay [1] (setting [5]) is more than 50 µM; in assay [2] (setting [6]), 38.6 µM. The ΔTm at 100 µM in assay [4] was found to be 14.9 °C; in assay [3] (setting [7]), 6.69 °C.
For `NC(=O)c1ccc(OCc2c(C(=O)O)sc3c(F)ccc(F)c23)cc1` [Example 82, 3-((4-Carbamoylphenoxy)methyl)-4,7-difluorobenzo[b]thiophene-2-carboxylic acid] the same measures were more than 50 µM, more than 50 µM, 9.29 °C and 3.15 °C.
As to `COCCCOC(=O)c1sc2cccc(Cl)c2c1COc1c(F)cc(C(N)=O)cc1F` [Example 162, 3-Methoxypropyl 3-((4-carbamoyl-2,6-difluorophenoxy)methyl)-4-chlorobenzo[b]thiophene-2-carboxylate], the figures for the EC50 in assay [1] (setting [5]) and in assay [2] (setting [8]) were 0.302 µM and 0.041 µM, respectively. The “DSF huSTING (WT) ΔTm (° C.)” value in assay [3] (setting [9]) was −1.01 °C.
As for `NC(=O)c1ccc(OCc2c(C(=O)O)sc3ccc(F)c(Cl)c23)cc1` [Example 84, 3-((4-Carbamoylphenoxy)methyl)-4-chloro-5-fluorobenzo[b]thiophene-2-carboxylic acid], the EC50 in assay [1] (setting [5]) and in assay [2] (setting [6]) was more than 50 µM throughout. Also, the figures for the ΔTm at 100 µM in assay [4] and in assay [3] (setting [7]) were 6.48 °C and 0.18 °C, respectively.
Take `Cc1cccc2sc(C(=O)O)c(COc3ccc(C(N)=O)cc3)c12` [Example 78, 3-((4-Carbamoylphenoxy)methyl)-4-methylbenzo[b]thiophene-2-carboxylic acid]: the EC50 in assay [1] (setting [5]) and in assay [2] (setting [6]) was more than 50 µM throughout. The ΔTm at 100 µM in assay [4] was 16 °C; in assay [3] (setting [7]), 6.62 °C.
For `NC(=O)c1cc(F)c(OCc2c(C(=O)O)sc3cccc(Cl)c23)c(F)c1` [Example 69, 3-((4-Carbamoyl-2,6-difluorophenoxy)methyl)-4-chlorobenzo[b]thiophene-2-carboxylic acid], the “DSF huSTING (HAQ) ΔTm (° C.)” value in assay [4] (setting [7]) was 22.08 °C. Besides, the ΔTm at 100 µM in assay [3] was found to be 9.49 °C.
Regarding `NC(=O)c1ccc(OCc2c(C(=O)O)sc3cccc(Cl)c23)c(F)c1F` [Example 67, 3-((4-Carbamoyl-2,3-difluorophenoxy)methyl)-4-chlorobenzo[b]thiophene-2-carboxylic acid], the EC50 in assay [1] (setting [5]) and in assay [2] (setting [6]) was more than 50 µM each time. Also, the ΔTm at 100 µM is 11.1 °C in assay [4] and 3.04 °C in assay [3] (setting [7]).
Turning to `COCCOC(=O)c1sc2cccc(Cl)c2c1COc1c(F)cc(C(N)=O)cc1F` [Example 158, 2-Methoxyethyl 3-((4-carbamoyl-2,6-difluorophenoxy)methyl)-4-chlorobenzo[b]thiophene-2-carboxylate], the EC50 was 0.949 µM in assay [1] and 0.132 µM in assay [2]. Also, the “DSF huSTING (HAQ) ΔTm (° C.)” value in assay [4] was −1.58 °C. Moreover, the “DSF huSTING (WT) ΔTm (° C.)” value in assay [3] was −1.90 °C.
With `NC(=O)c1ccc(OCc2c(C(=O)NCCc3ccccc3)sc3cccc(Br)c23)cc1` [Example 167, 4-Bromo-3-((4-carbamoylphenoxy)methyl)-N-phenethylbenzo[b]thiophene-2-carboxamide], the EC50 in assay [1] (setting [5]) worked out at 25.6 µM; in assay [2] (setting [8]), 23.2 µM. In assay [3] (setting [9]), the “DSF huSTING (WT) ΔTm (° C.)” value is 2.51 °C.
For `NC(=O)CNC(=O)c1sc2cccc(Cl)c2c1COc1c(F)cc(C(N)=O)cc1F` [Example 148, N-(2-Amino-2-oxoethyl)-3-((4-carbamoyl-2,6-difluorophenoxy)methyl)-4-chlorobenzo[b]thiophene-2-carboxamide] the same measures were more than 40 µM, 4.07 µM and −0.37 °C.
In the case of `CC(=O)NCCOC(=O)c1sc2cccc(Cl)c2c1COc1c(F)cc(C(N)=O)cc1F` [Example 159, 2-Acetamidoethyl 3-((4-carbamoyl-2,6-difluorophenoxy)methyl)-4-chlorobenzo[b]thiophene-2-carboxylate], the EC50 was determined as 0.325 µM in assay [1] (setting [5]) and 0.044 µM in assay [2] (setting [8]). Besides, in assay [3] (setting [9]), the “DSF huSTING (WT) ΔTm (° C.)” value is −1.02 °C.
Turning to `CCOP(=O)(COC(=O)c1sc2cccc(Cl)c2c1COc1c(F)cc(C(N)=O)cc1F)OCC` [Example 143, (Diethoxyphosphoryl)methyl 3-((4-carbamoyl-2,6-difluorophenoxy)methyl)-4-chlorobenzo[b]thiophene-2-carboxylate], the EC50 in assay [1] is 0.381 µM; in assay [2], 0.018 µM. In assay [4], the “DSF huSTING (HAQ) ΔTm (° C.)” value was −2.10 °C. In addition, the “DSF huSTING (WT) ΔTm (° C.)” value in assay [3] is −1.93 °C.
For `CN(C)C(=O)COC(=O)c1sc2cccc(Cl)c2c1COc1c(F)cc(C(N)=O)cc1F` [Example 127, 2-(Dimethylamino)-2-oxoethyl 3-((4-carbamoyl-2,6-difluorophenoxy)methyl)-4-chlorobenzo[b]thiophene-2-carboxylate], the EC50 in assay [1] (setting [5]) was 0.229 µM; in assay [2] (setting [8]) it was 0.026 µM. For the same compound, the “DSF huSTING (WT) ΔTm (° C.)” value in assay [3] (setting [9]) is −2.44 °C.
On to `NC(=O)c1ccc(NCc2c(C(=O)O)sc3cccc(Cl)c23)cc1` [Example 76, 3-(((4-Carbamoylphenyl)amino)methyl)-4-chlorobenzo[b]thiophene-2-carboxylic acid], for which the EC50 in assay [1] (setting [5]) came out at 0.217 µM; in assay [2] (setting [6]) it was 2.68 µM. Further, the ΔTm at 100 µM is 2.43 °C in assay [4] and -2.72 °C in assay [3] (setting [7]).
For `CCOC(=O)c1sc2c(Cl)cccc2c1COc1ccc(C(N)=O)cc1` [Example 11, Ethyl 3-((4-carbamoylphenoxy)methyl)-7-chlorobenzo[b]thiophene-2-carboxylate] the same measures were 25.6 µM, 16.2 µM, 0.29 °C and 0.13 °C.
In the case of `NC(=O)c1cc(F)c(OCc2c(C(=O)O)sc3cccc(Cl)c23)c(CO)c1` [Example 111, 3-((4-Carbamoyl-2-fluoro-6-(hydroxymethyl)phenoxy)methyl)-4-chlorobenzo[b]thiophene-2-carboxylic acid], the results for the EC50 in assay [1] (setting [5]) and in assay [2] (setting [8]) were 17.2 µM and 16.2 µM, respectively. Moreover, in assay [3] (setting [9]), the “DSF huSTING (WT) ΔTm (° C.)” value came to 10.88 °C.
As to `CCOC(=O)c1sc2cc(Cl)ccc2c1COc1ccc(C(N)=O)cc1` [Example 9, Ethyl 3-((4-carbamoylphenoxy)methyl)-6-chlorobenzo[b]thiophene-2-carboxylate], the EC50 in assay [1] (setting [5]) and in assay [2] (setting [6]) was more than 50 µM in each case. Further, the values for the ΔTm at 100 µM in assay [4] and in assay [3] (setting [7]) were 0.71 °C and 0.51 °C, respectively.
With `COC(=O)NCCOC(=O)c1sc2cccc(Cl)c2c1COc1c(F)cc(C(N)=O)cc1F` [Example 160, 2-((Methoxycarbonyl)amino)ethyl 3-((4-carbamoyl-2,6-difluorophenoxy)methyl)-4-chlorobenzo[b]thiophene-2-carboxylate], the EC50 in assay [1] (setting [5]) came to 0.298 µM; in assay [2] (setting [8]) it was 0.035 µM. Also, the “DSF huSTING (WT) ΔTm (° C.)” value in assay [3] (setting [9]) is −1.05 °C.
On to `CCOC(=O)c1sc2ccc(Cl)cc2c1COc1ccc(C(N)=O)cc1` [Example 13, Ethyl 3-((4-carbamoylphenoxy)methyl)-5-chlorobenzo[b]thiophene-2-carboxylate], for which the EC50 in assay [1] (setting [5]) and in assay [2] (setting [6]) was more than 50 µM throughout. Moreover, the ΔTm at 100 µM in assay [4] was -0.15 °C; in assay [3] (setting [7]), -0.59 °C.
On to `CCOC(=O)c1sc2ccccc2c1COc1ccc(C(N)=O)cc1` [Example 5, Ethyl 3-((4-carbamoylphenoxy)methyl)benzo[b]thiophene-2-carboxylate], for which the figures for the EC50 in assay [1] (setting [5]) and in assay [2] (setting [6]) were more than 50 µM and 8.22 µM, respectively. Moreover, the ΔTm at 100 µM in assay [4] was -0.48 °C; in assay [3] (setting [7]) it was 0.07 °C.
Turning to `NC(=O)c1cc(F)c(OCc2c(C(=O)O)sc3ccc(F)c(Cl)c23)c(F)c1` [Example 86, 3-((4-Carbamoyl-2,6-difluorophenoxy)methyl)-4-chloro-5-fluorobenzo[b]thiophene-2-carboxylic acid], the 50% effective concentration (EC50) in assay [1] (setting [5]) and in assay [2] (setting [6]) was more than 50 µM in each case. The values for the ΔTm at 100 µM in assay [4] and in assay [3] (setting [7]) were 10.1 °C and 3.33 °C, respectively.
